Source: PubChem BioAssay AID1343 (Sanford-Burnham Center for Chemical Genomics, 2008)
Activity calls are given as the source filed them.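 Rule for the calls: active = survival of 63% or more, 10 points above the level seen with tunicamycin given alone; inactive = the rest.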

Each molecule was assayed on CSM14.1 tunicamycin-induced death, ATP luminescence, 48 h (assay: protection against tunicamycin ER stress killing – cell-based, undifferentiated CSM14.1, ATP content, mechanism study for ER stress death inhibitor project, late-stage follow-up (AID 1343)). Details: at 25 µM; stronger effect = higher value.
With `CSc1ccc(C2Nc3ccccc3NC3=C2C(=O)CC(c2ccccc2)C3)cc1` (stereo unspecified) the survival was 59% (inactive). With `CCOc1cc(C2Nc3ccccc3NC3=C2C(=O)CC(c2ccc(OC)cc2)C3)cc(Cl)c1O` (stereo unspecified) the survival was 46% (inactive). With `COc1ccc(C2CC(=O)C3=C(C2)Nc2ccccc2NC3c2cccc(Oc3ccccc3)c2)cc1OC` (stereo unspecified) the survival was 63%. With `COc1ccc(C2CC(=O)C3=C(C2)Nc2ccccc2NC3c2ccccc2C(F)(F)F)cc1OC` (stereo unspecified) the survival was 60% (inactive). Molecule `CCCOc1ccc(C2Nc3ccccc3NC3=C2C(=O)CC(c2ccc(OC)c(OC)c2)C3)cc1` (stereo unspecified) has a survival of 74%. `COc1ccc(C2CC(=O)C3=C(C2)Nc2ccccc2NC3c2cccc(C(F)(F)F)c2)cc1OC` (stereo unspecified) was tested, and the survival was 65%. In the case of `CC1(C)CC(=O)C2=C(C1)Nc1ccccc1NC2c1ccc(-c2ccccc2)cc1` (stereo unspecified), the survival is reported as 77%. Work on `COc1ccc(C2CC(=O)C3=C(C2)Nc2ccccc2NC3c2cccc(Br)c2)cc1OC` (stereo unspecified) yielded a survival of 64%. For `COc1ccc(C2CC(=O)C3=C(C2)Nc2ccccc2NC3c2cc(C)ccc2C)cc1` (stereo unspecified), the survival was 57% (inactive). In the case of `CCOc1cccc(C2Nc3ccccc3NC3=C2C(=O)CC(c2ccc(OC)cc2)C3)c1` (stereo unspecified), the survival is reported as 55% (inactive). For `O=C1CC(c2ccccc2)CC2=C1C(c1c(F)cccc1Cl)Nc1ccccc1N2` (stereo unspecified), the survival was 52% (inactive).
